Results from patent publication US20110092488A1, “Quninoline Methanol Compounds for the Treatment and Prevention of Parasitic Infections” (priority 2005, published 2011).
Values after ≈ are worked out from the molar mass of the structure shown. “Also recorded” adds a separate entry of the source.

What was measured:
P. falciparum D6 [1] = experiment: In vitro antimalarial activity against P. falciparum D6; format: cell-based, Plasmodium falciparum; conditions: FIG. 5
Procedure: (§1) The in vitro activities of AAQMs against P. falciparum strains W2, D6, TM91C235 and TM90C2A were evaluated using the method of Desjardins et al. as modified by Milhous et al. W2 is chloroquine resistant and mefloquine sensitive, D6 is chloroquine sensitive but naturally less susceptible to mefloquine, TM91C235 is resistant to mefloquine, chloroquine and pyrimethamine as is TM90C2A, however this latter parasite is a two pfmdr1 copy strain. We routinely run mefloquine in this screen as a control to ensure assay validity.
(§2) The combined effects of azithromycin (as represented by compound 196 on the horizontal axes of FIG. 4 through 6) and WR074086 (as represented by compound 14885 on vertical axes of FIGS. 4 through 6) against three strains of P. falciparum were investigated using isobologram analysis. First, the IC50s of each compound were determined as described above.

P. falciparum D6 [2] = experiment: Isobologram analysis azithromycin and WR074086, P. falciparum D6; format: cell-based, Plasmodium falciparum; conditions: for FIC (IC50 in combination/IC50 alone): Line C FIG. 5: starting azithromycin 12500 ng/ml, WR074086 5 ng/ml
Procedure: as §2
(§3) Next, IC50s were determined with different fractional starting concentrations of each compound. For example in line C of FIG. 5, the starting concentration of azithromycin was 12500 ng/ml whereas the starting concentration of WR074086 was 5 ng/ml. Each of these starting concentrations is half of that used when each compound was tested alone. […] In the data tables, lines D-H represent other combinations of starting concentrations of each compound.
(§4) For each pair of starting concentrations for each drug, fractional inhibitory concentrations were determined using the following formula: FIC=IC50 in combination/IC50 alone.
The FICs for the eight tests are plotted as indicated in FIG. 4 through FIG. 6 for each of three P. falciparum strains. Graphs of this type are called isobolograms and additivity is represented by an overall FIC SUM of 1, as represented by the straight line joining the two axes. A potentiative effect is represented by a concave curve below the straight line, since IC50s in combination are lower than expected. Antagonism is represented by a convex curve above the straight line, since IC50s in combination are higher than expected.

[3] = system: FVO strain of P. falciparum; experiment: Efficacy in P. falciparum-challenged Aotus monkeys; format: in vivo, Plasmodium falciparum in Aotus lemurinus lemurinus; conditions: 10 mg/kg/day x7 oral; groups of two; Cure = parasite free 90 days; R = average day of recrudescence; Failure = rescued with mefloquine
Procedure: (§5) The P. berghei-mouse efficacy data were obtained from the WRAIR chemical information system (subcutaneous testing) or from recent tests conducted at AFRIMS, Thailand or at the University of Miami using a modified version of the Thompson test. Groups of five mice were inoculated through i.p. injection on day 0 (usually with 1×106 P. berghei-parasitized erythrocytes). The drugs in Table 1 were administered either subcutaneously or orally for three days (usually on days 3-5) at doses of 1.25-160 mg/kg in two to four fold increments. Cure was defined as survival until day 60 (subcutaneous dosing) or day 31 post-treatment (oral dosing). […] The minimum effective dose was the lowest dose level that cured at least one of five mice. The Aotus studies were performed according to Obaldia; Detection of Klebsiella pnuumoniae antibodies in Aotus l. lemurinus (Panamanian owl monkey) using an enzyme linked immunosorbent assay (ELIA) test; Lab Anim (25)133-141 (1991) and Obaldia et al., WR 238605, chloroquine, and their combinations as blood schizonticides against a chloroquine-resistant strain of Plasmodium vivax in Aotus monkeys; Am. J. Trop. Med. Hyg. (56)508-510 (1997), which are incorporated by reference, herein. Groups of two Aotus lemurinus 6 lemurinus of the karyotype VIII or IX (27) male and female monkeys with weights ranging from 742-970 g were inoculated with 5×10^6 parasites of either the FVO strain of P. falciparum or the AMRU1 strain of P. vivax. Both of these strains are chloroquine resistant. […] Monkeys were examined and thick Giemsa-stained blood smears were prepared and enumerated daily (17) to monitor the course of infection. […] In some instances, a high dose of the test drug was used to retreat monkeys instead of the mefloquine rescue. Monkeys are considered cured if they are parasite free 90 days post treatment. […] Plasma samples were taken from the monkeys in some studies for quantification of metabolites. Additional blood samples were taken as appropriate for complete blood counts and serum chemistry. Research was conducted in compliance with the Animal Welfare Act and other federal statutes and regulations relating to animals and experiments involving animals and adheres to principles stated in the Guide for the Care and Use of Laboratory Animals, NRC Publication, 1996 edition (34).

[4] = Aotus, 10 mg/kg/day oral x7
Procedure: as §5

P. falciparum TM91C235 = experiment: In vitro antimalarial activity against P. falciparum TM91C235; format: cell-based, Plasmodium falciparum
Procedure: as §1

[5] = system: P. falciparum D6, W2 and TM91C235; experiment: Isobologram analysis azithromycin and WR074086, P. falciparum D6, W2 and TM91C235; format: cell-based, Plasmodium falciparum; conditions: WR074086 combined with azithromycin; in many instances; FIGS. 4-6
Procedure: as §2, §3, §4
The FICs for the eight tests are plotted as indicated in FIG. 4 through FIG. 6 for each of three P. falciparum strains. Graphs of this type are called isobolograms and additivity is represented by an overall FIC SUM of 1, as represented by the straight line joining the two axes. A potentiative effect is represented by a concave curve below the straight line, since IC50s in combination are lower than expected. […]

[6] = system: Plasmodium falciparum malaria; conditions: P. falciparum malaria, South East Asia; WR030090: field trials; cited from earlier work

**Q.** For `CC[C@H]1OC(=O)[C@H](C)[C@@H](O[C@H]2C[C@@](C)(OC)[C@@H](O)[C@H](C)O2)[C@H](C)[C@@H](O[C@@H]2O[C@H](C)C[C@H](N(C)C)[C@H]2O)[C@](C)(O)C[C@@H](C)CN(C)[C@H](C)[C@@H](O)[C@]1(C)O` [azithromycin, reference compound], which IC50 (P. falciparum D6 [1]; Plasmodium falciparum, D6, read-out: IC50 against P. falciparum D6, compound alone) is on record?
**A.** 7230 ng/mL (≈ 9.66 µM)

**Q.** And the “FIC (IC50 in combination/IC50 alone)” value (P. falciparum D6 [2])?
**A.** 0.249

**Q.** For `CCCCN(CCCC)CC(O)c1cc(-c2ccc(F)cc2)nc2c(Cl)cc(Cl)cc12` (stereo not shown) [WR074086], which “IC50 against P. falciparum D6, compound alone” value (P. falciparum D6 [1]) is on record?
**A.** 1.8086 ng/mL (≈ 0.0039 µM)

**Q.** What about the “Outcome in Aotus” value [3] of the same molecule?
**A.** cleared parasitemias, but recrudescence was subsequently observed; also recorded: Clear (R25)

**Q.** And the “FIC (IC50 in combination/IC50 alone)” value (P. falciparum D6 [2])?
**A.** 0.399

**Q.** What about the FIC sum (P. falciparum D6 [2]; azithromycin + WR074086, Line C FIG. 5) of the same molecule?
**A.** 0.648

**Q.** What about the “Mean peak concentration” value [4] of the same molecule?
**A.** 129 ng/mL

**Q.** And the “Plasma conc on day 1 (ng/ml) 2 h” value ([4]; day 1, 2 h)?
**A.** 179 ng/mL

**Q.** What about the “Plasma conc on day 1 (ng/ml) 24 h” value ([4]; day 1, 24 h) of the same molecule?
**A.** 4.0 ng/mL

**Q.** And the “Plasma conc. on day 7 (ng/ml) 2 h” value ([4]; day 7, 2 h)?
**A.** 78 ng/mL

**Q.** And the “Plasma conc. on day 7 (ng/ml) 24 h” value ([4]; day 7, 24 h)?
**A.** 78 ng/mL

**Q.** And the “Activity against P. falciparum TM91C235 (IC50 in ng/ml)” value (P. falciparum TM91C235)?
**A.** 3.4 ng/mL

**Q.** What about the “TM91C235 IC90” value (P. falciparum TM91C235; Table 2) of the same molecule?
**A.** 7.0 ng/mL

**Q.** What about the “Minimum fractional inhibitory concentration (FIC)” value [5] of the same molecule?
**A.** < 0.5

**Q.** For `CCN(CC)CCCC(C)Nc1ccnc2cc(Cl)ccc12` (stereo not shown) [chloroquine], which Cure rate [6] is on record?
**A.** 11-20%

**Q.** Which Cure rate [6] does the source give for `C=C[C@H]1C[N@@]2CC[C@H]1C[C@H]2[C@H](O)c1ccnc2ccc(OC)cc12` [quinine] here?
**A.** 26-50%
